Like-named read-outs stand apart in the source and are kept apart here.
Experiments:
[1] = target: VEGFR-2 (Homo sapiens, UniProt P35968); assay: biochemical
Method: All the synthesised compounds were tested for their inhibitory activity against VEGFR-2 as described in Supplementary data[75].
Experimental of biological testing […]
2. In vitro VEGFR-2 kinase assay
All the synthesized compounds were tested for its inhibitory activity against VEGFR-2. Human VEGFR-2 ELISA kit (Enzyme-Linked Immunosorbent Assay) was utilized in this test. At first, specific antibody for VEGFR-2 was seeded on a 96-well plate and 100 μL of the standard solution or the tested compound was added, all were incubated at room temperature for 2.5 h. Then washed, 100 μL of the prepared biotin antibody was added, then incubated at room temperature for additional 1 h. and washed. Then, 100 μL of streptavidin solution was added and incubated for 45 min. at room temperature. Washed again, 100 μL of TMB Substrate reagent was added and incubated for 30 min. at room temperature. 50 μL of the stop solution was added, then read at 450 […]
nm immediately. […]

[2] = test system: MCF-7; assay: In vitro anti-proliferative activity (MTT assay), MCF-7; assay type: cell-based, human; settings: read-out: IC50 (µM) MCF-7
Method: (§1) All newly prepared compounds were assessed for their in vitro cytotoxic efficiencies via standard MTT method, against breast cancer (MCF-7) and hepatocellular carcinoma (HepG2) cell lines.
(§2) MTT assay protocol[55–57]^,[74] was applied as described in Supplementary data.
(§3) Experimental of biological testing
(§4) 1. In vitro anti-proliferative activity
(§5) the synthesized compounds.
(§6) oC for 48 h under 5% CO2.
(§7) the synthesized compounds and incubated for 24 h.

[3] = test system: HepG2; assay: In vitro anti-proliferative activity (MTT assay), HepG2; assay type: cell-based, human; settings: read-out: IC50 (µM) HepG2
Method: as §1, §2, §3, §4, §5, §6, §7

[4] = test system: MCF-7 and HepG2 cell lines; assay: In vitro anti-proliferative activity (MTT assay), stated over both cell lines; assay type: cell-based; settings: Homo sapiens, read-out: IC50 values ranging over the two cell lines (MCF-7 and HepG2)
[5] = test system: BAX; settings: HepG2, 24 h
[6] = test system: Bcl-2; settings: HepG2, 24 h
[7] = mean ± SD of three separate experiments
[8] = MTT, 24 h treatment, mean ± SD of three separate experiments
[9] = Homo sapiens, MCF7, MTT, 24 h treatment, mean ± SD of three separate experiments
[10] = Homo sapiens, HepG2, MTT, 24 h treatment, mean ± SD of three separate experiments
[11] = MTT, range stated for a group of compounds and both cell lines
[12] = control 1.00, mean ± SEM of three experiments

Sequence of VEGFR-2 (P35968 20-1356): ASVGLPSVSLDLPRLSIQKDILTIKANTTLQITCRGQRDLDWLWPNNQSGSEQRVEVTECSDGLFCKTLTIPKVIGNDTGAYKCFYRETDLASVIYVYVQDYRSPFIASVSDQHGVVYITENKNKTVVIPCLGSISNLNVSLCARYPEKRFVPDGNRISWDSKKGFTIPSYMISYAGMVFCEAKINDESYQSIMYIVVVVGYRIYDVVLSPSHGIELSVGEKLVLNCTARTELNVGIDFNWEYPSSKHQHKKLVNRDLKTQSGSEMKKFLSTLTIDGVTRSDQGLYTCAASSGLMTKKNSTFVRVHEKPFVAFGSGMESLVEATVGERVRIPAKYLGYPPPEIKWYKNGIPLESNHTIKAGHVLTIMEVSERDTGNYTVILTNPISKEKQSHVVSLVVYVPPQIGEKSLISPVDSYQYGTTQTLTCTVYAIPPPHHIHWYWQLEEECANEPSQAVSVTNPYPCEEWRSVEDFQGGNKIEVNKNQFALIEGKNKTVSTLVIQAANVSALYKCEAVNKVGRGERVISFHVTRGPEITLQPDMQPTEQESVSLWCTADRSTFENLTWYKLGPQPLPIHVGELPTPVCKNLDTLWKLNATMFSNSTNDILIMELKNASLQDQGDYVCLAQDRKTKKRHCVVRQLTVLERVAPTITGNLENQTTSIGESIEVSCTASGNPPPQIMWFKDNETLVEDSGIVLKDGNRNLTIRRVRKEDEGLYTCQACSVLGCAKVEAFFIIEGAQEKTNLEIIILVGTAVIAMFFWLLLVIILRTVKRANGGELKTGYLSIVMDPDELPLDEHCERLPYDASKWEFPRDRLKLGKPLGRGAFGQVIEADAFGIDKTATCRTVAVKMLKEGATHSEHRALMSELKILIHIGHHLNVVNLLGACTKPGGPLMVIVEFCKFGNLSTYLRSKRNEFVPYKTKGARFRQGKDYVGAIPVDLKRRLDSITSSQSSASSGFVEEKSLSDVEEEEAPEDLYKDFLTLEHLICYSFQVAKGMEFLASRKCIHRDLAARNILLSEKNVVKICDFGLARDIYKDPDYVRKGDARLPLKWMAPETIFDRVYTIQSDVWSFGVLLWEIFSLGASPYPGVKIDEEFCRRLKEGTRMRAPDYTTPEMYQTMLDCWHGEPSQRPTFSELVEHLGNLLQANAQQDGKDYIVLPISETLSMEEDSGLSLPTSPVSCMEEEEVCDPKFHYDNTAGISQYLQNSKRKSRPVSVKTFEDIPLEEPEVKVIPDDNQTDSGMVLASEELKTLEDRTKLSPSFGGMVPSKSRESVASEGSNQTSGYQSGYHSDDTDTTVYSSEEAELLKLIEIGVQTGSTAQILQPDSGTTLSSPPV

IC50 [1, 7] [nM] | IC50 [2, 9] [µM] | IC50 [3, 10] [µM] | IC50 [4, 11] [µM] | SMILES | also measured
5.8 ± 0.3 |  |  |  | O=C(CSc1nnc2c3nncn3c3ccccc3n12)Nc1ccc(C(=O)Nc2ccccc2O)cc1 [Compound 23l, 4-(2-(Bis([1,2, 4]triazolo)[4,3-a:3′,4′-c]uinoxaline-3-ylthio)acetamido)-N-(2-hydroxyphenyl)benzamide] | IC50 [2, 8]: 19.4 ± 1.1 µM; IC50 [3, 8]: 11.3 ± 0.7 µM
20.7 ± 1.6 | 40.7 ± 3.7 | 29.8 ± 2.1 | 15.2 to 48.3 | O=C(CSc1nnc2c3nncn3c3ccccc3n12)Nc1ccc(C(=O)NNC(=O)c2ccccc2O)cc1 [Compound 24c, 2-(Bis([1,2, 4]triazolo)[4,3-a:3',4'-c]quinoxalin-3-ylthio)-N-(4–(2-(2-hydroxybenzoyl)hydrazine-1-carbonyl)phenyl)acetamide] | 
23.9 ± 1.9 | 48.3 ± 3.9 | 34.5 ± 2.8 | 15.2 to 48.3 | O=C(CSc1nnc2c3nncn3c3ccccc3n12)Nc1ccc(C(=O)NNC(=O)c2ccccc2Cl)cc1 [Compound 24a, 2-(Bis([1,2, 4]triazolo)[4,3-a:3',4'-c]quinoxalin-3-ylthio)-N-(4–(2-(2-chlorobenzoyl)hydrazine-1-carbonyl)phenyl)acetamide] | 
9.4 ± 0.7 |  |  |  | O=C(CSc1nnc2c3nncn3c3ccccc3n12)Nc1ccc(C(=O)Nc2ccc(Cl)cc2)cc1 [Compound 23i, 4-(2-(Bis([1,2, 4]triazolo)[4,3-a:3',4'-c]quinoxalin-3-ylthio)acetamido)-N-(4-chlorophenyl)benzamide] | 
71.6 ± 5.2 | 78.9 ± 6.1 | 69.1 ± 6.1 |  | CCCCNC(=O)c1ccc(NC(=O)CSc2nnc3c4nncn4c4ccccc4n23)cc1 [Compound 23b, 4-(2-(Bis([1,2, 4]triazolo)[4,3-a:3',4'-c]quinoxalin-3-ylthio)acetamido)-N-butylbenzamide] | 
 |  |  |  | O=C(CSc1nnc2c3nncn3c3ccccc3n12)Nc1ccc(C(=O)Nc2cccc(Cl)c2)cc1 [Compound 23h, 4-(2-(Bis([1,2, 4]triazolo)[4,3-a:3',4'-c]quinoxalin-3-ylthio)acetamido)-N-(3-chlorophenyl)benzamide] | IC50 [1]: 11.7 ± 0.9 nM; IC50 ([2]; Homo sapiens, MCF7, 24 h): 37.2 ± 3.2 µM; IC50 ([3]; Homo sapiens, HepG2, 24 h): 22.3 ± 1.8 µM; IC50 [4]: 15.2 to 48.3 µM
 |  |  |  | O=C(CSc1nnc2c3nncn3c3ccccc3n12)Nc1ccc(C(=O)Nc2cc(Cl)ccc2Cl)cc1 [Compound 23j, 4-(2-(Bis([1,2, 4]triazolo)[4,3-a:3′,4′-c]uinoxaline-3-ylthio)acetamido)-N-(2,5-dichlorophenyl)benzamide] | IC50 [1]: 3.7 ± 0.2 nM; IC50 [2, 8]: 10.3 ± 0.8 µM; IC50 [3, 8]: 6.4 ± 0.5 µM; Increase of BAX level ([5]; compared to control cells): 1.65 fold; Protein expression (normalized to β-actin) BAX [5, 12]: 1.65 ± 0.06; Decrease of Bcl-2 level ([6]; compared to control cells): 2.63 fold; Protein expression (normalized to β-actin) Bcl-2 [6, 12]: 0.38 ± 0.03
11.8 ± 0.8 | 21.6 ± 1.8 | 17.5 ± 1.2 | 15.2 to 48.3 | CC(C)(C)NC(=O)c1ccc(NC(=O)CSc2nnc3c4nncn4c4ccccc4n23)cc1 [Compound 23d, 4-(2-(Bis([1,2, 4]triazolo)[4,3-a:3',4'-c]quinoxalin-3-ylthio)acetamido)-N-(tert-butyl)benzamide] | 
 | 3.51 ± 0.22 | 2.17 ± 0.14 |  | CNC(=O)c1cc(Oc2ccc(NC(=O)Nc3ccc(Cl)c(C(F)(F)F)c3)cc2)ccn1 [Sorafenib, sorafenib, reference compound] | 
9.7 ± 0.7 | 21.6 ± 1.7 | 15.2 ± 1.2 | 15.2 to 48.3 | O=C(CSc1nnc2c3nncn3c3ccccc3n12)Nc1ccc(C(=O)Nc2ccc(O)cc2)cc1 [Compound 23m, 4-(2-(Bis([1,2, 4]triazolo)[4,3-a:3′,4′-c]uinoxaline-3-ylthio)acetamido)-N-(4-hydroxyphenyl)benzamide] | 
7.1 ± 0.4 | 17.7 ± 1.5 | 11.3 ± 0.9 | 6.4 to 19.4 | CCNC(=O)c1ccc(NC(=O)CSc2nnc3c4nncn4c4ccccc4n23)cc1 [Compound 23a, 4-(2-(Bis([1,2, 4]triazolo)[4,3-a:3',4'-c]quinoxalin-3-ylthio)acetamido)-N-ethylbenzamide] | 
7.4 ± 0.5 | 16.5 ± 1.3 | 12.7 ± 0.9 | 6.4 to 19.4 | O=C(CSc1nnc2c3nncn3c3ccccc3n12)Nc1ccc(C(=O)Nc2ccc([N+](=O)[O-])cc2O)cc1 [Compound 23n, 4-(2-(Bis([1,2, 4]triazolo)[4,3-a:3′,4′-c]uinoxaline-3-ylthio)acetamido)-N-(2-hydroxy-4-nitrophenyl)benzamide] | 
22.3 ± 1.8 | 42.7 ± 3.7 | 30.3 ± 2.7 | 15.2 to 48.3 | O=C(CSc1nnc2c3nncn3c3ccccc3n12)Nc1ccc(C(=O)NNC(=O)c2cccc(Cl)c2)cc1 [Compound 24b, 2-(Bis([1,2, 4]triazolo)[4,3-a:3',4'-c]quinoxalin-3-ylthio)-N-(4–(2-(3-chlorobenzoyl)hydrazine-1-carbonyl)phenyl)acetamide] | 

SMILES | IC50 [1, 7] [nM] | IC50 [2, 9] [µM] | IC50 [3, 10] [µM] | IC50 [4, 11] [µM] | also measured
O=C(CSc1nnc2c3nncn3c3ccccc3n12)Nc1ccc(C(=O)NC2CCCC2)cc1 [Compound 23e, 4-(2-(Bis([1,2, 4]triazolo)[4,3-a:3',4'-c]quinoxalin-3-ylthio)acetamido)-N-cyclopentylbenzamide] | 39.8 ± 3.1 | 78.3 ± 6.5 | 74.8 ± 6.9 |  | 
CC(=O)c1ccc(NC(=O)c2ccc(NC(=O)CSc3nnc4c5nncn5c5ccccc5n34)cc2)cc1 [Compound 23g, N-(4-Acetylphenyl)-4-(2-(bis([1,2, 4]triazolo)[4,3-a:3',4'-c]quinoxalin-3-ylthio)acetamido)benzamide] | 62.7 ± 5.7 | 81.3 ± 7.4 | 80.7 ± 7.1 |  | 
CCC(C)NC(=O)c1ccc(NC(=O)CSc2nnc3c4nncn4c4ccccc4n23)cc1 (stereo not drawn) [Compound 23c, 4-(2-(Bis([1,2, 4]triazolo)[4,3-a:3',4'-c]quinoxalin-3-ylthio)acetamido)-N-(sec-butyl)benzamide] | 47.1 ± 4.2 | 76.2 ± 6.9 | 69.8 ± 5.9 |  | 
O=C(CSc1nnc2c3nncn3c3ccccc3n12)Nc1ccc(C(=O)NC2CCCCC2)cc1 [Compound 23f, 4-(2-(Bis([1,2, 4]triazolo)[4,3-a:3',4'-c]quinoxalin-3-ylthio)acetamido)-N-cyclohexylbenzamide] | 39.5 ± 2.9 | 74.1 ± 6.7 | 70.4 ± 5.8 |  | 
O=C(CSc1nnc2c3nncn3c3ccccc3n12)Nc1ccc(C(=O)Nc2ccc(F)cc2)cc1 [Compound 23k, 4-(2-(Bis([1,2, 4]triazolo)[4,3-a:3′,4′-c]uinoxaline-3-ylthio)acetamido)-N-(4-fluorophenyl)benzamide] | 49.6 ± 4.1 | 68.2 ± 5.2 | 71.8 ± 6.3 |  | 
